Reference: US8536180B2, “Pyrimidine inhibitors of kinase activity” (AbbVie Inc., priority 2009, dated 2013)

Biological target: T1, C-terminal GST-tagged, recombinant, human IGF-1R, amino acids 954-1367 (Homo sapiens, UniProt P08069)
T1 construct: human IGF-1R, amino acids 954-1367 expressed by baculovirus in Sf21 cells; GST (C); purchased Cell Signaling Technology; host or cells: baculovirus in Sf21 cells
Test: IGF-1R homogenous time-resolved fluorescence (HTRF) in vitro kinase assay
Format: biochemical
Conditions: IGF-1R kinase, ATP 50 μM final, biotinylated peptide substrate 0.5 μM, 60 minutes at room temperature
Procedure: IGF-1R kinase activity was assayed by a homogenous time-resolved fluorescence (HTRF) in vitro kinase assay (Mathis, G., HTRF(R) Technology. J Biomol Screen, 1999. 4(6): p. 309-314). Specifically, 10 μL C-terminal GST-tagged, recombinant, human IGF-1R, amino acids 954-1367 expressed by baculovirus in Sf21 cells (Cell Signaling Technology) was mixed with 10 μL inhibitor (various concentrations, 2% final DMSO) and 10 μL of ATP (50 μM final concentration) in reaction buffer (50 mM HEPES, pH 7.5, 10 mM MgCl2, 2 mM MnCl2, 0.1% BSA and 1 mM DTT, 40 μL final volume). The reaction was initiated by addition of 10 μL of biotinylated peptide substrate (Biotin-Ahx-[…], 0.5 μM final concentration) in a black 384-well plate (Packard). After 60 minutes incubation at room temperature, the reaction was quenched by addition of 60 μL stop/revelation buffer to give 30 mM EDTA, 1 μg/mL streptavidin-APC (Prozyme), 50 ng/mL anti-phosphotyrosine mAb PT66-K Europium Cryptate, 30 mM HEPES, pH 7.5, 120 mM KF, 0.005% Tween-20, 0.05% BSA). The quenched reaction was allowed to stand at room temperature for 1 hour and then read in a time-resolved fluorescence detector (Envision, Perkin Elmer) at 615 nm and 665 nm simultaneously. The ratio between the signal of 615 nm and 665 nm was used in the calculation of the IC50.

T1 sequence (P08069 954-1367): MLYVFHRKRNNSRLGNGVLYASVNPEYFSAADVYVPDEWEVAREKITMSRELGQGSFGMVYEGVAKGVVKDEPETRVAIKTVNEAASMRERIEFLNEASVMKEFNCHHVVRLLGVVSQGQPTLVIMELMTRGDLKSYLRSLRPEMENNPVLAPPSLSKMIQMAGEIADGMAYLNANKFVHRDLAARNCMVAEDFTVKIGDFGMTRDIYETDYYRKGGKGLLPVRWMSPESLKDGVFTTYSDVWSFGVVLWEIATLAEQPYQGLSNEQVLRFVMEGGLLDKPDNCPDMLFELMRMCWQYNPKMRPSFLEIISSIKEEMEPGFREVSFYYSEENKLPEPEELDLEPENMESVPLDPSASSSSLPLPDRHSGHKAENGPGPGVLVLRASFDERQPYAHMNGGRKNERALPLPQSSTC

SMILES | IC50
COc1ccccc1Cc1nc2ccc(-c3nc4sccn4c3-c3ccnc(Nc4ccc(N5CCC(N(C)C)CC5)cc4OC)n3)cc2[nH]1 [Example 55, N-{4-[4-(dimethylamino)piperidin-1-yl]-2-methoxyphenyl}-4-{6-[2-(2-methoxybenzyl)-1H-benzimidazol-6-yl]imidazo[2,1-b][1,3]thiazol-5-yl}pyrimidin-2-amine] | < 10 nM
COc1cc(N2CCC(N(C)C)CC2)ccc1Nc1nccc(-c2c(-c3ccc4nc(Cc5ccccc5C)[nH]c4c3)nc3sccn23)n1 [Example 56, N-{4-[4-(dimethylamino)piperidin-1-yl]-2-methoxyphenyl}-4-{6-[2-(2-methylbenzyl)-1H-benzimidazol-6-yl]imidazo[2,1-b][1,3]thiazol-5-yl}pyrimidin-2-amine] | < 10 nM
CN(C)Cc1ccc(Nc2nccc(-c3c(-c4ccc5nc(Cc6ccccc6)[nH]c5c4)nc4sccn34)n2)cc1 [Example 57, 4-[6-(2-benzyl-1H-benzimidazol-6-yl)imidazo[2,1-b][1,3]thiazol-5-yl]-N-{4-[(dimethylamino)methyl]phenyl}pyrimidin-2-amine] | < 10 nM
CN(C)Cc1ccccc1Nc1nccc(-c2c(-c3ccc4nc(Cc5ccccc5)[nH]c4c3)nc3sccn23)n1 [Example 58, 4-[6-(2-benzyl-1H-benzimidazol-6-yl)imidazo[2,1-b][1,3]thiazol-5-yl]-N-{2-[(dimethylamino)methyl]phenyl}pyrimidin-2-amine] | > 500 nM
O=C1CCCN1c1cccc(Nc2nccc(-c3c[nH]nc3-c3ccc4[nH]c(Cc5ccccc5Cl)nc4c3)n2)c1 [Example 59, 1-{3-[(4-{3-[2-(2-chlorobenzyl)-1H-benzimidazol-5-yl]-1H-pyrazol-4-yl}pyrimidin-2-yl)amino]phenyl}pyrrolidin-2-one] | 101 to 500 nM
CCn1cc(-c2ccnc(Nc3cccc(CN(C)C)c3)n2)c(-c2ccc3[nH]c(Cc4ccccc4OC)nc3c2)n1 [Example 60, N-{3-[(dimethylamino)methyl]phenyl}-4-{1-ethyl-3-[2-(2-methoxybenzyl)-1H-benzimidazol-5-yl]-1H-pyrazol-4-yl}pyrimidin-2-amine] | 10 to 50 nM
CCn1cc(-c2ccnc(Nc3cccc(CN(C)C)c3)n2)c(-c2ccc3[nH]c(Cc4ccccc4Cl)nc3c2)n1 [Example 61, 4-{3-[2-(2-chlorobenzyl)-1H-benzimidazol-5-yl]-1-ethyl-1H-pyrazol-4-yl}-N-{3-[(dimethylamino)methyl]phenyl}pyrimidin-2-amine] | 10 to 50 nM
CCn1cc(-c2ccnc(Nc3cccc(CN(C)C)c3)n2)c(-c2ccc3[nH]c(Nc4ccccc4)nc3c2)n1 [Example 62, 5-{4-[2-({3-[(dimethylamino)methyl]phenyl}amino)pyrimidin-4-yl]-1-ethyl-1H-pyrazol-3-yl}-N-phenyl-1H-benzimidazol-2-amine] | 10 to 50 nM
CCn1cc(-c2ccnc(Nc3cccc(CN(C)C)c3)n2)c(-c2ccc3[nH]c(Cc4ccccc4)nc3c2)n1 [Example 63, 4-[3-(2-benzyl-1H-benzimidazol-5-yl)-1-ethyl-1H-pyrazol-4-yl]-N-{3-[(dimethylamino)methyl]phenyl}pyrimidin-2-amine] | 10 to 50 nM

Further lines, results first:

IC50 | SMILES
101 to 500 nM | CCn1cc(-c2ccnc(Nc3ccccc3OC)n2)c(-c2ccc3[nH]c(Cc4ccccc4)nc3c2)n1 [Example 64, 4-[3-(2-benzyl-1H-benzimidazol-5-yl)-1-ethyl-1H-pyrazol-4-yl]-N-(2-methoxyphenyl)pyrimidin-2-amine]
101 to 500 nM | CCn1cc(-c2ccnc(Nc3ccccc3OC)n2)c(-c2ccc3[nH]c(Cc4ccccc4OC)nc3c2)n1 [Example 65, 4-{1-ethyl-3-[2-(2-methoxybenzyl)-1H-benzimidazol-5-yl]-1H-pyrazol-4-yl}-N-(2-methoxyphenyl)pyrimidin-2-amine]
10 to 50 nM | CCn1cc(-c2ccnc(Nc3ccc(N4CCC(N(C)C)CC4)cc3OC)n2)c(-c2ccc3[nH]c(Cc4ccccc4)nc3c2)n1 [Example 66, 4-[3-(2-benzyl-1H-benzimidazol-5-yl)-1-ethyl-1H-pyrazol-4-yl]-N-{-4-[4-(dimethylamino)piperidin-1-yl]-2-methoxyphenyl}pyrimidin-2-amine]
51 to 100 nM | CCn1cc(-c2ccnc(Nc3ccc(N4CCC(N(C)C)CC4)cc3OC)n2)c(-c2ccc3[nH]c(Cc4ccccc4Cl)nc3c2)n1 [Example 67, 4-{3-[2-(2-chlorobenzyl)-1H-benzimidazol-5-yl]-1-ethyl-1H-pyrazol-4-yl}-N-{4-[4-(dimethylamino)piperidin-1-yl]-2-methoxyphenyl}pyrimidin-2-amine]
51 to 100 nM | CCn1cc(-c2ccnc(Nc3ccc(N4CCC(N(C)C)CC4)cc3OC)n2)c(-c2ccc3[nH]c(Cc4ccccc4OC)nc3c2)n1 [Example 68, N-{4-[4-(dimethylamino)piperidin-1-yl]-2-methoxyphenyl}-4-{1-ethyl-3-[2-(2-methoxybenzyl)-1H-benzimidazol-5-yl]-1H-pyrazol-4-yl}pyrimidin-2-amine]
101 to 500 nM | CCn1cc(-c2ccnc(Nc3ccc(N4CCC(N(C)C)CC4)cc3OC)n2)c(-c2ccc3[nH]c(-c4ccccc4)nc3c2)n1 [Example 69, N-{4-[4-(dimethylamino)piperidin-1-yl]-2-methoxyphenyl}-4-[1-ethyl-3-(2-phenyl-1H-benzimidazol-5-yl)-1H-pyrazol-4-yl]pyrimidin-2-amine]
